In paper PMC9071444 (Nucleic Acids Research, 2022):
“Also recorded” adds a separate entry of the source. Read-outs that look alike come from different tables or passages of the source.

Columns and labels:
TBEV-5 [1] = assay type: binding, tick-borne encephalitis virus
TBEV-5 [2] = assay type: binding, tick-borne encephalitis virus; remark: listed apart in the source
TBEV-5 [3] = assay type: binding, tick-borne encephalitis virus; remark: listed apart in the source
[4] = test system: Japanese encephalitis virus RdRp; assay type: biochemical
[5] = test system: RNA G4 derived from the Nipah virus and ZIKV genomes; settings: cited from earlier work
[6] = test system: SuperScript IV reverse transcriptase; assay type: biochemical
TBEV-5 [7] = assay type: binding, tick-borne encephalitis virus; remark: listed apart in the source
in vitro = settings: pig
[8] = test system: TBEV strains Neudoerfl and Hypr; assay: microbe, parasite or virus in culture; assay type: cell-based, tick-borne encephalitis virus; settings: for EC50: read-out: EC50
TBEV strain Neudoerfl [9] = test system: TBEV strain Neudoerfl
TBEV strain Hypr [10] = test system: TBEV strain Hypr
TBEV strain Neudoerfl [11] = assay: microbe, parasite or virus in culture; settings: Tick-borne encephalitis virus, 48 h
TBEV strain Hypr [12] = assay: microbe, parasite or virus in culture; settings: Tick-borne encephalitis virus, 48 h
ZIKV virus = settings: 100 μM; cited from earlier work
TBEV strain Hypr [13] = assay type: cell-based, tick-borne encephalitis virus
[14] = test system: Viral genome RNA from the TBEV strain Hypr; assay type: cell-based, tick-borne encephalitis virus
TBEV strain Hypr [15] = assay type: cell-based, tick-borne encephalitis virus; remark: listed apart in the source
TBEV strain Neudoerfl [16] = assay type: cell-based, tick-borne encephalitis virus
[17] = test system: SuperScript IV reverse transcriptase; assay type: biochemical; remark: listed apart in the source
[18] = test system: TBEV strains Neudoerfl and Hypr; assay type: cell-based, tick-borne encephalitis virus
ZIKV NS2B-NS3 protease = settings: cited from earlier work
ZIKV = settings: cited from earlier work
[19] = biological target: Japanese encephalitis virus RdRp (Japanese encephalitis virus, UniProt P32886); assay type: biochemical
HCV RdRp = settings: cited from earlier work
[20] = Tick-borne encephalitis virus, 48 h

Chain of Japanese encephalitis virus RdRp (Japanese encephalitis virus, UniProt P32886) (P32886 2528-3432 limits assumed): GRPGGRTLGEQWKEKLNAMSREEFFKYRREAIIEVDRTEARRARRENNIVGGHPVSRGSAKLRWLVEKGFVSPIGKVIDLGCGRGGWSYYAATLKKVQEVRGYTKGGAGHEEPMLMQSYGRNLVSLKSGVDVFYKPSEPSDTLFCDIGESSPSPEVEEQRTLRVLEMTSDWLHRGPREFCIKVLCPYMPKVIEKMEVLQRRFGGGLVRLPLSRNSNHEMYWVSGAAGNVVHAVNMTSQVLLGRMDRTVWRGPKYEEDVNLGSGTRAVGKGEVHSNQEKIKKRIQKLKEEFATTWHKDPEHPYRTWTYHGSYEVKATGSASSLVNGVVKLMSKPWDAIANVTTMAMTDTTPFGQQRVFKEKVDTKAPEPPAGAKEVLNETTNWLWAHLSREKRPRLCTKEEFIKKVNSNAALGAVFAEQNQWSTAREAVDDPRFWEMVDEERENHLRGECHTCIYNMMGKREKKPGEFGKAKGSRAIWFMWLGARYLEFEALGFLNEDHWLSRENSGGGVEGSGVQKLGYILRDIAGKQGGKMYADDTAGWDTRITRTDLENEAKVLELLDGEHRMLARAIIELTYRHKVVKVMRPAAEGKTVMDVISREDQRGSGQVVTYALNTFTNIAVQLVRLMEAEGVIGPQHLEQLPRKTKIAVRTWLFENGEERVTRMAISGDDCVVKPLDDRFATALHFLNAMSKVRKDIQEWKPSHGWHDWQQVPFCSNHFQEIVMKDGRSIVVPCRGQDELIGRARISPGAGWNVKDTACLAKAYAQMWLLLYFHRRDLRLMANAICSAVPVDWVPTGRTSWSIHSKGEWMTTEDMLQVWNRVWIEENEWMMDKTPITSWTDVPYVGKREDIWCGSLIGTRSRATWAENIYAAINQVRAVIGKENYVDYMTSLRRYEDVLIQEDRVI

| Compound | G4 specificity of binding (titration curves with TBEV-5 versus TBEV-5mut) (TBEV-5 [1]) | RdRp activity relative to no-ligand control [4] [%] | CC50 (PS cells) [µM] | Increase in Tm of TBEV-5 G4 (TBEV-5 [7]) | SI (CC50/EC50) (TBEV strain Neudoerfl [9]) | SI (CC50/EC50) (TBEV strain Hypr [10]) | EC50 (TBEV strain Neudoerfl [9]) [µM] | EC50 (TBEV strain Hypr [10]) [µM] | Course of anti-TBEV activity over time [8] | Phase of the viral replication cycle in which the antiviral action takes effect (TBEV strain Hypr [13]) | Inhibition of RT [17] | other results |
| --- | --- | --- | --- | --- | --- | --- | --- | --- | --- | --- | --- | --- |
| 5,10,15,20-tetrakis-(N-methyl-4-pyridyl)porphine [TMPyP4] | bind non-specifically | < 10 | > 50 | strong distortion of melting curves | – | – | – | – | – | – | – | Binding of TBEV-5 (concentration for 50% TBEV-5 saturation) (TBEV-5 [1]): best binder; Displacement of the probe (TO or ThT) (TBEV-5 [2]): ~100%; Change of CD at 263 nm of TBEV-5 (TBEV-5 [3]): most pronounced; Interaction with RNA G4 [5]: specifically interact; Full product of reverse transcription relative to no-ligand control [6]: inhibits reverse transcriptase |
| O=C1c2cccc(O)c2C(=O)c2c(O)cc(CO)cc21 [Aloe emodin, aloe-emodin] | – | – | – | strong distortion of melting curves | >1 | >1 | – | – | – | – | – | Displacement of ThT (TBEV-5 [2]): did not significantly displace; CC50 (in vitro): > 50 µM; Virus inhibition in initial screening [8]: no virus inhibition effects; EC50 (TBEV strain Neudoerfl [11]): > 50 µM; EC50 (TBEV strain Hypr [12]): > 50 µM |
| CN(C)c1ccc(Nc2c3ccc(NC(=O)CCN4CCCC4)cc3nc3cc(NC(=O)CCN4CCCC4)ccc23)cc1 [BRACO-19] | – | – | > 50 | strong distortion of melting curves | >1 | >1 | > 50 | > 50 | – | – | – | Virus inhibition in initial screening [8]: no virus inhibition effects; Interaction with RNA G4 [5]: specifically interact; Effect on ZIKV virus titers (ZIKV virus): decrease ZIKV virus titers |
| COc1ccc2cc3[n+](cc2c1OC)CCc1cc2c(cc1-3)OCO2 [Berberin, berberine] | specifically bind G4 | – | – | up to 3.5 °C | – | – | – | – | stable over time | post-entry/fusion phase | did not inhibit RT | Displacement of TO (TBEV-5 [2]): did not displace; Displacement of ThT (TBEV-5 [2]): around 50%; CC50 (in vitro): > 50 µM; EC50 [8, 20]: 1.2 to 2.9 µM; Suppression of infectious viral particle formation [14]: partial; Reduction of numbers of viral RNA copies (TBEV strain Hypr [15]): about 40%; Reduction of numbers of viral RNA copies (TBEV strain Neudoerfl [16]): ~25%; Full product of reverse transcription relative to no-ligand control [6]: does not inhibit RT; EC50 (TBEV strain Neudoerfl [11]): 1.26 µM; EC50 (TBEV strain Hypr [12]): 1.57 µM |
| CN(C)c1ccc(C(=C2C=CC(=[N+](C)C)C=C2)c2ccc(N(C)C)cc2)cc1 [CV, crystal violet] | – | – | – | – | – | – | – | – | – | – | – | CC50 (PS cells; pig): < 1.6 µM |
| Cc1cnc(CNC(=O)c2c(=O)c3ccc(N4CCCN(C)CC4)nc3n3c2sc2ccccc23)cn1 [CX5461] | – | – | – | – | – | – | – | – | – | – | – | Antiviral effect at the lowest non-cytotoxic concentration (TBEV strain Neudoerfl [9]): ^eNo antiviral effect was observed at the lowest non-cytotoxic concentration of 5 μM.; Antiviral effect at the lowest non-cytotoxic concentration (TBEV strain Hypr [10]): ^eNo antiviral effect was observed at the lowest non-cytotoxic concentration of 5 μM.; CC50 (PS cells; pig): 14.1 µM |
| CCC1=C(C)c2cc3[nH]c(cc4nc(cc5c(CCC(=O)O)c(C)c(cc1n2)n5C)C(CCC(=O)O)=C4C)c(C)c3CC [NMM, N-Methylmesoporphyrin IX] | specifically bind G4 | – | > 50 | up to 3.5 °C | >5000 | >2 500 | 0.01 | 0.02 | stable over time | prior to the entry/fusion steps | did not inhibit RT | Concentration that completely suppressed TBEV replication [8]: 1.6 µM; Effect on viral RNA copies [18]: complete inhibition of RNA synthesis; Viable viral particle formation [14]: no viable viral particle formation; Full product of reverse transcription relative to no-ligand control [6]: inhibits reverse transcriptase; Cell morphology and monolayer cohesion (PS cells): observable changes in cell morphology and in mechanical monolayer cohesion |
| NCCOc1cc(C(=O)Nc2cc(OCCN)c3ccccc3n2)nc(C(=O)Nc2cc(OCCN)c3ccccc3n2)c1 [PDS, Pyridostatin] | – | < 10 | – | – | – | – | – | – | stable over time | post-entry/fusion phase | strong inhibitory effect | CC50 (in vitro): > 50 µM; Effect on ZIKV NS2B-NS3 protease (ZIKV NS2B-NS3 protease): reduces its catalytic activity; EC50 [8, 20]: 1.2 to 2.9 µM; Phase of ZIKV cycle affected (ZIKV): replication period rather than entry; Suppression of infectious viral particle formation [14]: partial; also recorded: complete; EC50 (TBEV strain Neudoerfl [11]): 2.94 µM; EC50 (TBEV strain Hypr [12]): 1.29 µM |
| C[n+]1cc(NC(=O)c2ccc3ccc4ccc(C(=O)Nc5cc6ccccc6[n+](C)c5)nc4c3n2)cc2ccccc21 [PhenDC3] | – | < 10 | > 50 | strong distortion of melting curves | >8.66 | >8.08 | 5.77 | 5.68 | gradually disappeared or dropped significantly | post-entry/fusion phase | strong inhibitory effect | Displacement of the probe (TO or ThT) (TBEV-5 [2]): ~100%; Inhibition of RdRp activity [19]: almost completely inhibits; Change of CD at 263 nm of TBEV-5 (TBEV-5 [3]): most pronounced; EC50 [8]: ~5 µM; Effect on HCV RdRp (HCV RdRp): no significant effect |
| CN1C(=Cc2cc[n+](C)c3ccccc23)Sc2ccccc21 [TO, thiazole orange] | bind non-specifically | – | 1.8 | strong distortion of melting curves | – | – | – | – | – | – | – | Displacement of ThT (TBEV-5 [2]): almost entirely displaces; Change of CD at 263 nm of TBEV-5 (TBEV-5 [3]): most pronounced |
| Cc1ccc2c(c1)sc(-c1ccc(N(C)C)cc1)[n+]2C [ThT, thioflavin T] | specifically bind G4 | – | – | up to 3.5 °C | – | – | – | – | – | – | – | Displacement of TO (TBEV-5 [2]): does not displace; Antiviral effect at the lowest non-cytotoxic concentration (TBEV strain Neudoerfl [9]): ^eNo antiviral effect was observed at the lowest non-cytotoxic concentration of 5 μM.; Antiviral effect at the lowest non-cytotoxic concentration (TBEV strain Hypr [10]): ^eNo antiviral effect was observed at the lowest non-cytotoxic concentration of 5 μM.; CC50 (PS cells; pig): 10.6 µM |
| NCCOc1cc(NC(=O)c2cc(OCc3cn(CCC(=O)O)nn3)cc(C(=O)Nc3cc(OCCN)c4ccccc4n3)n2)nc2ccccc12 [cPDS, Carboxy pyridostatin] | – | < 10 | > 50 | strong distortion of melting curves | >11.23 | >9.05 | 4.45 | 5.52 | gradually disappeared or dropped significantly | post-entry/fusion phase | – | EC50 [8]: ~5 µM |
